{
  "source": "ChEMBL document CHEMBL4350989",
  "about": "“Discovery of 2,4-diarylaminopyrimidine derivatives bearing dithiocarbamate moiety as novel FAK inhibitors with antitumor and anti-angiogenesis activities” (Eur J Med Chem, 2019)",
  "key": {"[1]": {"tested_on": "MCF7", "test": "Induction of cell cycle arrest in human MCF7 cells assessed as accumulation at G0/G1 phase at 0.05 uM after 24 hrs by 7-AAD staining-based flow cytometric analysis (reference value: 62.45%)", "type": "functional"}, "[2]": {"tested_on": "MCF7", "test": "Induction of apoptosis in human MCF7 cells assessed as early apoptotic cells at 0.01 uM after 24 hrs by Annexin-V and 7-AAD staining based flow cytometric analysis (reference value: 2.04%)", "type": "functional"}, "[3]": {"tested_on": "PC-3", "test": "Antiproliferative activity against human PC3 cells overexpressing FAK assessed as reduction in cell viability after 72 hrs by MTS assay", "settings": "PC-3, 72 h"}, "[4]": {"tested_on": "HCT-116", "test": "Induction of cell cycle arrest in human HCT116 cells assessed as accumulation at S phase at 0.05 uM after 24 hrs by 7-AAD staining-based flow cytometric analysis (reference value: 37.20%)", "type": "functional"}, "[5]": {"tested_on": "MCF7", "test": "Antiproliferative activity against human MCF7 cells overexpressing FAK assessed as reduction in cell viability after 72 hrs by MTS assay", "settings": "MCF7, 72 h"}, "[6]": {"organism": "Homo sapiens", "test": "Induction of apoptosis in human […] after 24 hrs by Annexin-V and 7-AAD staining based flow cytometric analysis", "type": "functional, cell-based"}, "[7]": {"tested_on": "HCT-116", "test": "Induction of cell cycle arrest in human HCT116 cells assessed as accumulation at G2/M phase at 0.05 uM after 24 hrs by 7-AAD staining-based flow cytometric analysis (reference value: 12.26%)", "type": "functional"}, "[8]": {"tested_on": "HCT-116", "test": "Induction of apoptosis in human HCT116 cells assessed as early apoptotic cells at 0.005 uM after 24 hrs by Annexin-V and 7-AAD staining based flow cytometric analysis (reference value: 8.11%)", "type": "functional"}, "[9]": {"tested_on": "MCF7", "test": "Induction of apoptosis in human MCF7 cells assessed as late apoptotic cells at 0.05 uM after 24 hrs by Annexin-V and 7-AAD staining based flow cytometric analysis (reference value: 7.63%)", "type": "functional"}, "[10]": {"tested_on": "MCF7", "test": "Induction of apoptosis in human MCF7 cells assessed as viable cells at 0.005 uM after 24 hrs by Annexin-V and 7-AAD staining based flow cytometric analysis (reference value: 90.2%)", "type": "functional", "settings": "MCF7, 24 h, read-out: Activity"}, "[11]": {"tested_on": "HCT-116", "test": "Induction of apoptosis in human HCT116 cells assessed as early apoptotic cells at 0.1 uM after 24 hrs by Annexin-V and 7-AAD staining based flow cytometric analysis ((reference value: 8.11%)", "type": "functional"}, "[12]": {"tested_on": "MCF7", "test": "Induction of apoptosis in human MCF7 cells assessed as early apoptotic cells at 0.05 uM after 24 hrs by Annexin-V and 7-AAD staining based flow cytometric analysis (reference value: 2.04%)", "type": "functional"}, "[13]": {"tested_on": "MCF7", "test": "Induction of cell cycle arrest in human MCF7 cells assessed as accumulation at G2/M phase at 0.005 uM after 24 hrs by 7-AAD staining-based flow cytometric analysis (reference value: 11.48%)", "type": "functional"}, "[14]": {"tested_on": "MCF7", "test": "Induction of cell cycle arrest in human MCF7 cells assessed as accumulation at S phase at 0.01 uM after 24 hrs by 7-AAD staining-based flow cytometric analysis (reference value: 26.07%)", "type": "functional"}, "[15]": {"tested_on": "MCF7", "test": "Induction of apoptosis in human MCF7 cells assessed as necrotic cells at 0.005 uM after 24 hrs by Annexin-V and 7-AAD staining based flow cytometric analysis (reference value: 0.16%)", "type": "functional"}, "[16]": {"tested_on": "MCF7", "test": "Induction of cell cycle arrest in human MCF7 cells assessed as increase in accumulation at G2/M phase after 24 hrs by 7-AAD staining-based flow cytometric analysis", "type": "functional"}, "[17]": {"tested_on": "MCF7", "test": "Induction of apoptosis in human MCF7 cells assessed as viable cells at 0.05 uM after 24 hrs by Annexin-V and 7-AAD staining based flow cytometric analysis (reference value: 90.2%)", "type": "functional", "settings": "MCF7, 24 h, read-out: Activity"}, "[18]": {"tested_on": "MCF7", "test": "Induction of apoptosis in human MCF7 cells assessed as necrotic cells at 0.01 uM after 24 hrs by Annexin-V and 7-AAD staining based flow cytometric analysis (reference value: 0.16%)", "type": "functional"}, "[19]": {"tested_on": "HCT-116", "test": "Induction of cell cycle arrest in human HCT116 cells assessed as accumulation at G2/M phase at 0.1 uM after 24 hrs by 7-AAD staining-based flow cytometric analysis (reference value: 12.26%)", "type": "functional"}},
  "data": [
    {"compound": "CNC(=O)c1ccccc1Nc1nc(Nc2ccc(C(=O)N3CCN(C(=S)SCCN(C)C)CC3)cc2)ncc1C(F)(F)F", "values": [
      {"measurement": "Activity", "setting": "[1]", "result": 6.72, "unit": "%"},
      {"measurement": "Activity", "setting": "[2]", "result": 6.95, "unit": "%"},
      {"measurement": "IC50", "setting": "[3]", "result": 30, "unit": "nM"},
      {"measurement": "Activity", "setting": "[4]", "result": 9.05, "unit": "%"},
      {"measurement": "IC50", "setting": "[5]", "result": 20, "unit": "nM"},
      {"measurement": "Activity", "setting": "[6]", "result": "Dose-dependent effect"},
      {"measurement": "Activity", "setting": "[7]", "result": 87.56, "unit": "%"},
      {"measurement": "Activity", "setting": "[8]", "result": 15.9, "unit": "%"},
      {"measurement": "Activity", "setting": "[9]", "result": 25.7, "unit": "%"},
      {"measurement": "viability at 0.005 µM", "setting": "[10]", "result": 74.2, "unit": "%"},
      {"measurement": "Activity", "setting": "[11]", "result": 21.5, "unit": "%"},
      {"measurement": "Activity", "setting": "[12]", "result": 13.7, "unit": "%"},
      {"measurement": "Activity", "setting": "[13]", "result": 36.67, "unit": "%"},
      {"measurement": "Activity", "setting": "[14]", "result": 8.75, "unit": "%"},
      {"measurement": "Activity", "setting": "[15]", "result": 0.16, "unit": "%"},
      {"measurement": "Activity", "setting": "[16]", "result": "Dose-dependent effect"},
      {"measurement": "viability at 0.05 µM", "setting": "[17]", "result": 60.1, "unit": "%"},
      {"measurement": "Activity", "setting": "[18]", "result": 0.47, "unit": "%"},
      {"measurement": "Activity", "setting": "[19]", "result": 90.46, "unit": "%"}
    ]}
  ]
}
